Five molecules from PubChem BioAssay AID1259407 (Chemical Carcinogenesis Research Information System (CCRIS), 2018) can be followed below.

The test system of the data set is CCRIS mutagenicity, Ames/micronucleus/aberration tests. Description: CCRIS mutagenicity studies.
The mark [1] stands for this setting: Test System: AMES SALMONELLA TYPHIMURIUM, Strain/Indicator: TA100, Metabolic Activation: NONE, Method: STANDARD PLATE.
Where [2] appears, read: Test System: AMES SALMONELLA TYPHIMURIUM, Strain/Indicator: TA100, Metabolic Activation: RAT, LIVER, S-9, AROCLOR 1254, Method: STANDARD PLATE.
Where [3] appears, read: Test System: AMES SALMONELLA TYPHIMURIUM, Strain/Indicator: TA98, Metabolic Activation: NONE, Method: PREINCUBATION
Where [4] appears, read: Test System: AMES SALMONELLA TYPHIMURIUM, Strain/Indicator: TA100, Metabolic Activation: NONE, Method: PREINCUBATION
Where [5] appears, read: Test System: AMES SALMONELLA TYPHIMURIUM, Strain/Indicator: TA104, Metabolic Activation: NONE, Method: PREINCUBATION
Setting [6] is: Test System: AMES SALMONELLA TYPHIMURIUM, Strain/Indicator: TA97, Metabolic Activation: NONE, Method: PREINCUBATION
Where [7] appears, read: Test System: AMES SALMONELLA TYPHIMURIUM, Strain/Indicator: TA102, Metabolic Activation: NONE, Method: PREINCUBATION

Calls of active or inactive are those of the source. How the calls were made is not given here.

Regarding `CC(C)CN(N)CC(C)C`, the mutagenic call is, setting by setting: under setting [1], “active; positive”; under setting [2], “active; positive”; (Test System: AMES SALMONELLA TYPHIMURIUM, Strain/Indicator: TA102, Metabolic Activation: NONE, Method: STANDARD PLATE) “inactive; negative”; (Test System: AMES SALMONELLA TYPHIMURIUM, Strain/Indicator: TA102, Metabolic Activation: RAT, LIVER, S-9, AROCLOR 1254, Method: STANDARD PLATE) “inactive; negative”.

Consider `O=C(O)/C(Cl)=C(\CCl)C(Cl)Cl`, for which the mutagenic call is “active; positive” under setting [3], “active; positive” under setting [4] and “active; positive” under setting [5].

For the molecule `CCOC(=O)CC(C)C`, the mutagenic call reads like this: under setting [6], “inactive; negative”; (Test System: AMES SALMONELLA TYPHIMURIUM, Strain/Indicator: TA97, Metabolic Activation: RAT, LIVER, S-9, AROCLOR 1254, Method: PREINCUBATION) “inactive; negative”; under setting [7], “inactive; negative”; (Test System: AMES SALMONELLA TYPHIMURIUM, Strain/Indicator: TA102, Metabolic Activation: RAT, LIVER, S-9, AROCLOR 1254, Method: PREINCUBATION) “inactive; negative”.

For `C=C(C#N)C(=O)OCC(C)C`, the mutagenic call is “inactive; negative” under setting [1] and “inactive; negative” under setting [2].

Consider `O=C(O)c1ccccc1C(=O)O`, for which the mutagenic call runs as follows: (End Point: In vitro chromosomal aberrations, Test System: Chinese hamster ovary (CHO) cells, Metabolic Activation: None) “inactive; negative”; (End Point: In vitro chromosomal aberrations, Test System: Chinese hamster ovary (CHO) cells, Metabolic Activation: Rat, liver, S-9, Aroclor 1254, 10%) “inactive; negative”; (End Point: In vivo micronucleus, Test System: Bone marrow polychromatic erythrocytes, Species: Mouse, Strain/Sex: ICR/Male, Route: Intraperitoneal) “inactive; negative”; (Test System: AMES SALMONELLA TYPHIMURIUM, Strain/Indicator: TA97, Metabolic Activation: HAMSTER, LIVER, S-9, AROCLOR 1254, 10%, Method: PREINCUBATION) “inactive; negative”; (Test System: AMES SALMONELLA TYPHIMURIUM, Strain/Indicator: TA97, Metabolic Activation: HAMSTER, LIVER, S-9, AROCLOR 1254, 30%, Method: PREINCUBATION) “inactive; negative”; under setting [6], “inactive; negative”. Also, the mutagenic call runs as follows: (Test System: AMES SALMONELLA TYPHIMURIUM, Strain/Indicator: TA97, Metabolic Activation: RAT, LIVER, S-9, AROCLOR 1254, 10%, Method: PREINCUBATION) “inactive; negative”; (Test System: AMES SALMONELLA TYPHIMURIUM, Strain/Indicator: TA97, Metabolic Activation: RAT, LIVER, S-9, AROCLOR 1254, 30%, Method: PREINCUBATION) “inactive; negative”; (Test System: AMES SALMONELLA TYPHIMURIUM, Strain/Indicator: TA97, Metabolic Activation: RAT, LIVER, S-9, PHENOBARBITAL AND 5,6-BENZOFLAVONE, Method: PREINCUBATION) “inactive; negative”; (Test System: AMES SALMONELLA TYPHIMURIUM, Strain/Indicator: TA98, Metabolic Activation: HAMSTER, LIVER, S-9, AROCLOR 1254, 10%, Method: PREINCUBATION) “inactive; negative”; (Test System: AMES SALMONELLA TYPHIMURIUM, Strain/Indicator: TA98, Metabolic Activation: HAMSTER, LIVER, S-9, AROCLOR 1254,(30%, Method: PREINCUBATION) “inactive; negative”; under setting [3], “inactive; negative”. Besides, the mutagenic call was “inactive; negative” (Test System: AMES SALMONELLA TYPHIMURIUM, Strain/Indicator: TA98, Metabolic Activation: RAT, LIVER, S-9, AROCLOR 1254, 10%, Method: PREINCUBATION); “inactive; negative” (Test System: AMES SALMONELLA TYPHIMURIUM, Strain/Indicator: TA98, Metabolic Activation: RAT, LIVER, S-9, AROCLOR 1254, 30%, Method: PREINCUBATION); “inactive; negative” (Test System: AMES SALMONELLA TYPHIMURIUM, Strain/Indicator: TA98, Metabolic Activation: RAT, LIVER, S-9, PHENOBARBITAL AND 5,6-BENZOFLAVONE, Method: PREINCUBATION); “inactive; negative” (Test System: AMES SALMONELLA TYPHIMURIUM, Strain/Indicator: TA100, Metabolic Activation: HAMSTER, LIVER, S-9, AROCLOR 1254, 10%, Method: PREINCUBATION); “inactive; negative” (Test System: AMES SALMONELLA TYPHIMURIUM, Strain/Indicator: TA100, Metabolic Activation: HAMSTER, LIVER, S-9, AROCLOR 1254, 30%, Method: PREINCUBATION); “inactive; negative” under setting [4]. For the same molecule, the mutagenic call was “inactive; negative” (Test System: AMES SALMONELLA TYPHIMURIUM, Strain/Indicator: TA100, Metabolic Activation: RAT, LIVER, S-9, AROCLOR 1254, 10%, Method: PREINCUBATION); “inactive; negative” (Test System: AMES SALMONELLA TYPHIMURIUM, Strain/Indicator: TA100, Metabolic Activation: RAT, LIVER, S-9, AROCLOR 1254, 30%, Method: PREINCUBATION); “inactive; negative” (Test System: AMES SALMONELLA TYPHIMURIUM, Strain/Indicator: TA100, Metabolic Activation: RAT, LIVER, S-9, PHENOBARBITAL AND 5,6-BENZOFLAVONE, Method: PREINCUBATION); “inactive; negative” under setting [7]; “inactive; negative” (Test System: AMES SALMONELLA TYPHIMURIUM, Strain/Indicator: TA102, Metabolic Activation: RAT, LIVER, S-9, PHENOBARBITAL AND 5,6-BENZOFLAVONE, Method: PREINCUBATION); “inactive; negative” under setting [5]. Also, the mutagenic call (Test System: AMES SALMONELLA TYPHIMURIUM, Strain/Indicator: TA104, Metabolic Activation: RAT, LIVER, S-9, PHENOBARBITAL AND 5,6-BENZOFLAVONE, Method: PREINCUBATION) was “inactive; negative”; the mutagenic call (Test System: AMES SALMONELLA TYPHIMURIUM, Strain/Indicator: TA1535, Metabolic Activation: HAMSTER, LIVER, S-9, AROCLOR 1254, 10%, Method: PREINCUBATION) is “inactive; negative”; the mutagenic call (Test System: AMES SALMONELLA TYPHIMURIUM, Strain/Indicator: TA1535, Metabolic Activation: HAMSTER, LIVER, S-9, AROCLOR 1254, 30%, Method: PREINCUBATION) is “inactive; negative”; the mutagenic call (Test System: AMES SALMONELLA TYPHIMURIUM, Strain/Indicator: TA1535, Metabolic Activation: NONE, Method: PREINCUBATION) is “inactive; negative”; the mutagenic call (Test System: AMES SALMONELLA TYPHIMURIUM, Strain/Indicator: TA1535, Metabolic Activation: RAT, LIVER, S-9, AROCLOR 1254 (10%), Method: PREINCUBATION) is “inactive; negative”; the mutagenic call (Test System: AMES SALMONELLA TYPHIMURIUM, Strain/Indicator: TA1535, Metabolic Activation: RAT, LIVER, S-9, AROCLOR 1254, 30%, Method: PREINCUBATION) is “inactive; negative”. In addition, the mutagenic call (Test System: Ames Salmonella typhimurium, Strain/Indicator: TA98, Metabolic Activation: None, Method: Preincubation) was “inactive; negative”; the mutagenic call (Test System: Ames Salmonella typhimurium, Strain/Indicator: TA98, Metabolic Activation: Rat, Liver, S-9, Aroclor 1254, Method: Preincubation) was “inactive; negative”; the mutagenic call (Test System: Ames Salmonella typhimurium, Strain/Indicator: TA100, Metabolic Activation: None, Method: Preincubation) was “inactive; negative”; the mutagenic call (Test System: Ames Salmonella typhimurium, Strain/Indicator: TA100, Metabolic Activation: Rat, liver, S-9, Aroclor 1254, Method: Preincubation) is “inactive; negative”; the mutagenic call (Test System: Ames Salmonella typhimurium, Strain/Indicator: TA102, Metabolic Activation: None, Method: Preincubation) is “inactive; negative”; the mutagenic call (Test System: Ames Salmonella typhimurium, Strain/Indicator: TA102, Metabolic Activation: Rat, liver, S-9, Aroclor 1254, Method: Preincubation) was “inactive; negative”. Also, the mutagenic call was “inactive; negative” (Test System: Ames Salmonella typhimurium, Strain/Indicator: TA1535, Metabolic Activation: None, Method: Preincubation); “inactive; negative” (Test System: Ames Salmonella typhimurium, Strain/Indicator: TA1535, Metabolic Activation: Rat, liver, S-9, Aroclor 1254, Method: Preincubation); “inactive; negative” (Test System: Ames Salmonella typhimurium, Strain/Indicator: TA1537, Metabolic Activation: None, Method: Preincubation); “inactive; negative” (Test System: Ames Salmonella typhimurium, Strain/Indicator: TA1537, Metabolic Activation: Rat, liver, S-9, Aroclor 1254, Method: Preincubation).
